Results: US4948807A, “Phenyl carbamates” (priority 1985, dated 1990)
Where two headings read alike, the source gives them in different places.

Columns and labels:
acetylcholinesterase [1] = settings: compared with the monoquaternary molecules; cited from earlier work
[2] = eye drops; cited from earlier work
[3] = test system: brain acetylcholinesterase; settings: for Relative potency to physostigmine after oral administration / % cholinesterase inhibition 3 hours after s.c. administration / Relative potency to physostigmine after subcut. (s.c.) administration: mouse brain; for Relative potency to physostigmine after oral administration / Relative potency to physostigmine after subcut. (s.c.) administration: physostigmine = 100
Description: The effect of each compound on brain acetylcholinesterase in vivo was measured, after subcutaneous or oral administration to mice. Animals were sacrificed, at different times ranging from 0.25-8 hours after drug administration. The brain was rapidly removed, and the enzyme acetylcholinesterase extracted and solubilized with 0.1% Triton, and its ability to hydrolyse acetylthiocholine assessed as described above (in vitro experiments), in comparison with the enzyme removed from mice injected with normal saline.

acetylcholinesterase [4] = molecular target: T1, acetylcholinesterase (Mus musculus, UniProt P21836); assay: biochemical; type: biochemical
T1 construct: A solubilized preparation of acetylcholinesterase was prepared from mouse whole brain (minus cerebellum); from tissue; host or cells: mouse whole brain (minus cerebellum), membrane pellet solubilized with 1% Triton
T1 sequence (P21836 32-614): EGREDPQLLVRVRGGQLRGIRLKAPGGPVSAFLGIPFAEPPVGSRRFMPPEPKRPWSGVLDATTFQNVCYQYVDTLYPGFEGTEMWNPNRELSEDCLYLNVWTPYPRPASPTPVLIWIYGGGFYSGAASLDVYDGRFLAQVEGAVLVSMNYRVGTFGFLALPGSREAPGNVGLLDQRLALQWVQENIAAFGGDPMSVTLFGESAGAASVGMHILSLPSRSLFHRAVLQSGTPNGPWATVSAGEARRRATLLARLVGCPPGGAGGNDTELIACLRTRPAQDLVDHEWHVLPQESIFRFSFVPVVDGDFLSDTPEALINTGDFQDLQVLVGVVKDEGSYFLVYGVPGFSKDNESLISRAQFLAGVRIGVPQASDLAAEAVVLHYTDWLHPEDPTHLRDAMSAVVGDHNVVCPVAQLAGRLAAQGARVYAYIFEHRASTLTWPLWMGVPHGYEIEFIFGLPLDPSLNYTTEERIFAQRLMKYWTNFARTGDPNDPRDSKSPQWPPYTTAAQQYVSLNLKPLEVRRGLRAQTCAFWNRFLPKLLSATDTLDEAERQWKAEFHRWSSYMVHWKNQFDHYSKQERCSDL
Description: A solubilized preparation of acetylcholinesterase was prepared from mouse whole brain (minus cerebellum). The brain was homogenized with (100 mg/ml) phosphate buffer; pH 8.0, centrifuged, the supernatant discarded, and the pellet mixed with a similar volume as above of buffer pH 8.0 plus 1% Triton; mixed, centrifuged and the supernatant which contained most of the solubilized enzyme, was used for the subsequent determinations of anticholinesterase activity.
The activity of the enzyme (rate of hydrolysis of substrate, acetylthiocholine) was measured using at least 4 different concentrations of substrate, and at least 3 different concentrations of each inhibitor. The enzyme was incubated with inhibitor for periods ranging for 2-180 mins. at 37° C., substrate was then added, and its rate of hydrolysis measured by the spectrophotometric method of Ellman et al. (1961).

[5] = in vivo; cited from earlier work
in vivo = settings: mouse, in vivo
Description: Mice were given one of at least three different doses of each compound, orally or subcutaneously, a minimum of 10 mice allotted to each dose. The number of animals which died at each dose within 3 hours was determined.
This experiment was repeated after the animals had been pretreated with atropine sulphate, which blocks both peripheral and central muscarinic receptors.
What is important is the safety of the drugs and the presence and severity of side effects that may occur at therapeutic doses. A commonly-used measure of drug safety is the therapeutic index--or LD50 /ED50 [formula]
It is assumed that the therapeutic effect of these anticholinesterase agents results from an elevation of brain cholinergic activity. This in turn, should be related to the degree of inhibition of acetylcholinesterase. For the purpose of the computation of the denominator of the therapeutic ratio, there is used the dose of drug that inhibits the activity of acetylcholinesterase by 50%. […] The numerator is the dose found to kill 50% of the animals within […] of a subcutaneous injection.

[6] = test system: respiratory depressant effects of morphine; type: in vivo; settings: rabbits
Description: Different doses of the carbamate compounds were injected intravenously with morphine in rabbits Respiration rate, arterial blood gas tensions and pH were monitored continuously before and after drug administration for 4-5 hours. In another series of experiments the effect of the anticholinesterase drugs was assessed on the analgesic effect of opiates in rabbits after application of a nociceptive stimulus, i.e. electrical stimulation of the sciatic nerve.

[7] = test system: acetylcholinesterase in the cerebro-spinal fluid; settings: patients with Alzheimer's disease; Thal et al. 1983; cited from earlier work
tardive dyskinesias = settings: injected intravenously; cited from earlier work
[8] = cited from earlier work; for penetration of the central nervous system: in vivo; for absorption from the gastro-intestinal tract: oral
[9] = in vivo; cited from earlier work; remark: listed apart in the source
Huntingdon's chorea = settings: injections; cited from earlier work
[10] = incubation of enzyme with inhibitor, 37° C.
[11] = Ratio whose head is drawing 10 (Table 3; oral LD50 compared with s.c. LD50), mice, oral versus s.c.
[12] = sc, Therapeutic ratio LD50/ED50 s.c., mice, ED50 = dose inhibiting brain acetylcholinesterase by 50%

CC[N+](CC)(CCNC(=O)C(=O)NCC[N+](CC)(CC)Cc1ccccc1Cl)Cc1ccccc1Cl [Ambenonium]
selectivity for acetylcholinesterase over butyrylcholinesterase (acetylcholinesterase [1]): more selective inhibitors of acetylcholinesterase than butyrylcholinesterase

CN(CCCCCCCCCCN(C)C(=O)Oc1cccc([N+](C)(C)C)c1)C(=O)Oc1cccc([N+](C)(C)C)c1 [Demacarium]
selectivity for acetylcholinesterase over butyrylcholinesterase (acetylcholinesterase [1]): more selective inhibitors of acetylcholinesterase than butyrylcholinesterase

CNC(=O)Oc1cccc(C(C)N(C)C)c1 (centres unmarked) [Miotine, reference compound]
myopic activity [2]: myopic agent
Relative potency to physostigmine after oral administration [3]: 300
% cholinesterase inhibition 3 hours after s.c. administration [3]: 5%
Relative potency to physostigmine after subcut. (s.c.) administration [3]: 100
IC50 (acetylcholinesterase [4]): 13 nM
Time of peak activity (acetylcholinesterase [4]; [10]): 30 min
insecticidal activity [5]: claimed to be an insecticide
selectivity ratio (in vivo; [11]): 1.2
LD50 at 3 h (in vivo; sc): 4.5 µmol/kg
selectivity ratio (in vivo; [12]): 4.9

CNC(=O)Oc1ccc2c(c1)[C@]1(C)CCN(C)[C@@H]1N2C [Physostigmine, reference compound]
duration of antagonism of the respiratory depressant effect of morphine ([6]; 0.1-0.2 mg/kg): 30 to 60 min
muscle fasciculations ([6]; with morphine): fasciculations are marked at the higher dose
block of acetylcholinesterase in cerebro-spinal fluid at dose giving maximum improvement in short term memory [7]: 50%
improvement of tardive dyskinesias (tardive dyskinesias): significant but short lived improvement in a proportion of patients
penetration of the central nervous system [8]: readily enters the brain
absorption from the gastro-intestinal tract [8]: irregular and unpredictable
half-life [9]: 20 to 40 min
duration of significant brain enzyme inhibition (>30%) ([3]; mouse, in vivo): less than 2 hours
IC50 (acetylcholinesterase [4]): 11 nM
Time of peak activity (acetylcholinesterase [4]): 30 min
LD50 at 3 h (in vivo; sc): 3 µmol/kg
benefit in Huntingdon's chorea (Huntingdon's chorea): some benefit

CCCNC(=O)Oc1cccc(C(C)N(C)C)c1 (centres unmarked) [RA15, N-propyl-3[1-(dimethylamino)ethyl]phenyl carbamate]
duration of significant antagonism of the respiratory depressant effects of morphine ([6]; depending on drug and dose): 3 to 5 h
duration of significant brain enzyme inhibition (>30%) ([3]; at ED50 dose): more than 3 hours
relative in vivo activity compared to physostigmine versus in vitro data ([3]; comparison of Table 1 with Table 2): relatively more active in vivo compared to physostigmine than one would expect from the in vitro data
Relative potency to physostigmine after oral administration [3]: 32
% cholinesterase inhibition 3 hours after s.c. administration [3]: 37%
Relative potency to physostigmine after subcut. (s.c.) administration [3]: 33
duration of brain acetylcholinesterase inhibition compared with physostigmine or miotine ([3]; parenteral administration, in words): significantly longer duration
IC50 (acetylcholinesterase [4]): 110 nM
Time of peak activity (acetylcholinesterase [4]; [10]): 120 min
selectivity ratio (in vivo; Degree of protection afforded by pretreatment with atropine, ratio of LD50 after pretreatment with atropine sulphate 5 mg/kg to LD50 of drug alone): 4.1
selectivity ratio (in vivo; [11]): 4.5
LD50 at 3 h (in vivo; sc): 31 µmol/kg
selectivity ratio (in vivo; [12]): 11.1

CN(C)C(=O)Oc1cccc([N+](C)(C)C)c1 [neostigmine]
penetration of the central nervous system [8]: do not penetrate the central nervous system to any significant extent
absorption from the gastro-intestinal tract [8]: only poorly absorbed from the gastro-intestinal tract

CN(C)C(=O)Oc1ccc[n+](C)c1 [pyridostigmine]
penetration of the central nervous system [8]: do not penetrate the central nervous system to any significant extent
absorption from the gastro-intestinal tract [8]: only poorly absorbed from the gastro-intestinal tract
